The text below walks through data of patent US20230322745A1, “FUSED TRICYCLIC DERIVATIVE AND PHARMACEUTICAL APPLICATION THEREOF” (CHIA TAI TIANQING PHARMACEUTICAL GROUP CO., LTD., priority 2020, published 2023).

Where a name gives a salt, the structure may show the parent alone. Read-outs that look alike come from different tables or passages of the source.

The target in data set [1] is β2 receptor (cells expressing human ADRB2 gene) (Homo sapiens (Human), UniProt P07550). Nature of the data set: Agonistic effect on β2 receptor by HTRF cAMP method. Type of data set: cell-based. As to the method: β2 receptor is a G protein-coupled receptor, which is mainly coupled with Gs protein, and can activate adenylate cyclase activity through the Gs protein after being activated by binding to the ligand, thereby increasing the level of intracellular cAMP. In this experiment, the agonistic activity of the compounds against the β2 receptor in vitro was assayed by the cAMP kit.
(§1) β2 cells (expressing human ADRB2 gene) from ICE Bioscience Inc. were grown under standard conditions. The cells were collected and diluted with 1× Stimulation Buffer, and 9 μL of the cell dilution was added to a white low-volume 384-well plate with 1000 cells seeded in each well. Compounds were serially diluted in DMSO in a 5-fold gradient to obtain 10 concentrations. Before testing, compounds that had been serially diluted in DMSO were subjected to 100-fold dilution with 1× Stimulation Buffer to obtain compound working solutions. The concentration of the vehicle DMSO was 0.1%. Eu-cAMP and ULight™-anti-cAMP were diluted to the working concentration with Detection buffer. 5 μL of Eu-cAMP diluent and 5 μL of ULight™-anti-cAMP diluent were sequentially added into corresponding experiment wells. After 1 h of incubation at room temperature, readings at 665 nm and 620 nm were measured under the excitation wavelength of 330 nm using a Biotek microplate reader. The activity of the compounds was obtained by plotting through Ratio (665/620) against the concentration of the compounds, fitting the curve by a nonlinear regression method using GraphPad Prism 7 software and calculating EC50.

The target in data set [2] is M3 receptor (Homo sapiens (Human), UniProt P20309). The experiment in a line: M3 receptor affinity test (3H-NMS competition). Type of data set: binding. As to the method: M3 receptor is a G protein-coupled receptor. In this experiment, the activity of test compounds against the M3 receptor in vitro was assayed by the competition of radioisotope labeled NMS and non-isotope labeled test compounds for an M3 binding site.
(§2) The experiment was performed by a radioisotope affinity assay. The M3 receptor membrane protein was prepared at 10 μg/mL by Biology Department of WuXi AppTec, and compounds were serially diluted in a 2.5-fold gradient in DMSO to obtain 10 concentrations. Radioisotope 3H-NMS was prepared at 0.2 nM in an assay buffer (10 mM HEPES, 1 mM MgCl2, pH 7.40). In formal testing, the experimental system comprising 1 of the test compound, 100 μL of M3 receptor membrane protein and 100 μL of radioisotope was shaken in a shaker at 300 RPM for 2 h at room temperature. A GF/C plate (Perkin Elmer, Cat No. 6055690) was prefoamed with 0.3% PEI, and the membrane proteins in the reaction solution were collected by filtration onto the GF/C plate. The signal values were read by a Perkin Elmer Microbeta2 instrument and the inhibition rate for each concentration point was shown as a percentage.

For data set [3], the target named is β1 receptor (cells expressing human ADRB1 gene) (Homo sapiens (Human), UniProt P08588). Nature of the data set: Agonistic effect on β1 receptor by HTRF cAMP method. Type of data set: cell-based. How it is done:
β1 receptor is a G protein-coupled receptor, which is mainly coupled with Gs protein, and can activate adenylate cyclase activity through the Gs protein after being activated by binding to the ligand, thereby increasing the level of intracellular cAMP. In this experiment, the agonistic activity of the compounds against the β1 receptor in vitro was assayed by the cAMP kit.
as §1, with “β1” for “β2”, “ADRB1” for “ADRB2”, “4000” for “1000”

For data set [4], the target named is M2 receptor (Homo sapiens (Human), UniProt P08172). Nature of the data set: M2 receptor affinity test (3H-NMS competition). The data set is classed as binding. How it is done: M2 receptor is a G protein-coupled receptor. In this experiment, the activity of test compounds against the M2 receptor in vitro was assayed by the competition of radioisotope labeled NMS and non-isotope labeled test compounds for an M2 binding site.
as §2, with “The M2 receptor membrane” for “The experiment was performed by a radioisotope affinity assay. The M3 receptor membrane”, “prepared at 100 μg/mL by” for “prepared at 10 μg/mL by”, “comprising 1 μL of the” for “comprising 1 of the”, “μL of M2 receptor membrane” for “μL of M3 receptor membrane”

The nature of data set [5]: Pharmacokinetic evaluation in SD rats. Particulars: male, rat, plasma. Type of data set: in vivo. As to the method:
To test pharmacokinetics of test compounds in SD rats
SD rats (male, 200-250 g, 7-9 weeks old, Beijing Vital River Laboratory Animal Technology Co., Ltd.)
A formulation containing 10% aqueous HPβCD solution as a vehicle was administered by intravenous injection (2 mpk), and a formulation containing 10% aqueous HPβCD solution as a vehicle was administered by intra-tracheal administration (5 mpk) with a nebulizer needle. Before the animal experiment, all animals were fed normally; and all animals were given free access to water. Blood collection time points were as follows: intravenous administration group: 0.083 h, 0.25 h, 0.5 h, 1 h, 2 h, 4 h, 8 h, and 24 h; nebulizer needle administration group: 0.083 h, 0.25 h, 0.5 h, 1 h, 2 h, 4 h, 8 h, and 24 h.
Whole blood samples (0.25 mL) were collected via the jugular vein (or other suitable collection site) at prescribed time points, and all blood samples were added to labeled plastic centrifuge tubes containing a K2-EDTA anticoagulant. After blood collection, plasma was separated by centrifugation and placed in dry ice rapidly, and the samples were stored at low temperature. All samples were analyzed by LC-MS/MS with a limit of detection of 4 nM. The mean concentration of plasma was processed using a non-compartmental model of the pharmacokinetic software WinNonlin™ Version 6.3 (Pharsight, Mountain View, CA), and pharmacokinetic parameters were calculated by a linear log-trapezoidal method.

Setting [6] is: HTRF cAMP, 1 h incubation at room temperature, read-out: EC50, agonistic activity against the β2 receptor in vitro.
Where [7] appears, read: read-out: IC50, activity against the M3 receptor in vitro.

β1 receptor (cells expressing human ADRB1 gene), sequence (P08588 whole entry): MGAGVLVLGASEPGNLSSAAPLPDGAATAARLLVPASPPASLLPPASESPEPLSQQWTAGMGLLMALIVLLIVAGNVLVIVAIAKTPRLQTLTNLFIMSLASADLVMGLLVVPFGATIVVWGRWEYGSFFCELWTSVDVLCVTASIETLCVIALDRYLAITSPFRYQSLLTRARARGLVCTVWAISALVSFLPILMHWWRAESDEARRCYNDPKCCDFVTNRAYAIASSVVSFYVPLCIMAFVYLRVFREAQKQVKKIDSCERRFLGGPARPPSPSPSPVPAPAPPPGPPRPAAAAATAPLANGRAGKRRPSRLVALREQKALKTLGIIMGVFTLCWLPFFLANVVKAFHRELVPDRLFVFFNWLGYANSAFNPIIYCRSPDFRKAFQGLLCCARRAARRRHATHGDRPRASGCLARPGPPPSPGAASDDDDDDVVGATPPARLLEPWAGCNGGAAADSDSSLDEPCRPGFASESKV
M2 receptor, sequence (P08172 whole entry): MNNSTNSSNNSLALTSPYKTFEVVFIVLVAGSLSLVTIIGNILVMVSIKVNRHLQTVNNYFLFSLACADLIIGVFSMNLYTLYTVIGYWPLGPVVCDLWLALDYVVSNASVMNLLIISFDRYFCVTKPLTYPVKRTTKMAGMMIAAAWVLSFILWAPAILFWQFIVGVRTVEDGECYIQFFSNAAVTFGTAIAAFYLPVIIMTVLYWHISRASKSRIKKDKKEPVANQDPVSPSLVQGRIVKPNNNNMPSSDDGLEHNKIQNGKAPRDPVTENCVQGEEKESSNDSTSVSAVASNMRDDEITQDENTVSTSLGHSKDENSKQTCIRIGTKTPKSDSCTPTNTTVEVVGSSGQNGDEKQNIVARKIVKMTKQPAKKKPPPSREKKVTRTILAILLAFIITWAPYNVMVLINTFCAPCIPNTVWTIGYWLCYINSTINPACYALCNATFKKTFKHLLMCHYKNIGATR
M3 receptor, sequence (P20309 whole entry): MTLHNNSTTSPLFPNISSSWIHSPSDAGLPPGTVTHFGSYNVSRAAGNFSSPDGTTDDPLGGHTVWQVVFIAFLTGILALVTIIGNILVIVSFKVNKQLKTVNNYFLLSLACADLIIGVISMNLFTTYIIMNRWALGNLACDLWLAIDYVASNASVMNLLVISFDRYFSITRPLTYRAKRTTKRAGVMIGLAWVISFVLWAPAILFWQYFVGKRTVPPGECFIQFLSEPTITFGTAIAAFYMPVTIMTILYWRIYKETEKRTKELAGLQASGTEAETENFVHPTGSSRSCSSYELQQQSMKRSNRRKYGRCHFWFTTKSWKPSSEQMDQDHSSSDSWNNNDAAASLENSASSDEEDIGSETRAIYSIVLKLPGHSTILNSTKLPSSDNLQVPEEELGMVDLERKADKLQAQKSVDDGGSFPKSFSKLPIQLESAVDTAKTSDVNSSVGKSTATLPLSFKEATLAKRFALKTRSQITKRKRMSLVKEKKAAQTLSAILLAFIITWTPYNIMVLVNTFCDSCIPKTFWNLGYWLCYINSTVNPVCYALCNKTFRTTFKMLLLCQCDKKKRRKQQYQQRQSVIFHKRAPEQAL
β2 receptor (cells expressing human ADRB2 gene), sequence (P07550 whole entry): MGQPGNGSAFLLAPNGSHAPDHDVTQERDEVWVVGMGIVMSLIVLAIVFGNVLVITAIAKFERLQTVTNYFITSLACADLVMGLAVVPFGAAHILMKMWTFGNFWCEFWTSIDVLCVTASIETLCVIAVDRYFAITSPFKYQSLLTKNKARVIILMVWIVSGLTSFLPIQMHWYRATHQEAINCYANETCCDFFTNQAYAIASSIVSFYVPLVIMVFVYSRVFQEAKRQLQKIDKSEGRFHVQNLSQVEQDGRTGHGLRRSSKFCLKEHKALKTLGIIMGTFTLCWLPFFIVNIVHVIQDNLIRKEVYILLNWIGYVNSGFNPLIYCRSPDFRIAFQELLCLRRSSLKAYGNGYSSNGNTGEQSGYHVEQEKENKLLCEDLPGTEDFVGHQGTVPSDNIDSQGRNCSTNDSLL

For `CN(CCCn1nnc2cc(CNC[C@H](O)c3ccc(O)c4[nH]c(=O)ccc34)c3c(c21)CCC3)[C@H]1CC[C@H](OC(=O)C(O)(c2ccc(Cl)s2)c2ccc(Cl)s2)CC1` [Trifluoroacetate salt of compound 10], the EC50 was 1.36 nM in data set [1] (setting [6]) and 269 nM in data set [3]. In addition, the IC50 in data set [2] (setting [7]) is 1.27 nM.
Consider `O=C(OC1CCC2(CC1)CN(CCCn1nnc3cc(CNC[C@H](O)c4ccc(O)c5[nH]c(=O)ccc45)c4c(c31)CCC4)C2)C(O)(c1cccs1)c1cccs1` [Formate salt of compound 4], for which the EC50 was 2.15 nM in data set [1] (setting [6]) and 304 nM in data set [3]. Further, the IC50 in data set [2] (setting [7]) came out at 0.343 nM.
The matching figures for `Cn1ncc2c(CNC[C@H](O)c3ccc(O)c4[nH]c(=O)ccc34)cc3nnn(CCCN(C)[C@H]4CC[C@H](OC(=O)C(O)(c5cccs5)c5cccs5)CC4)c3c21` [Compound 11]: 1.12 nM, 33.7 nM and 0.638 nM.
As to `CN(CCCn1cnc2cc(CNC[C@H](O)c3ccc(O)c4[nH]c(=O)ccc34)c3c(c21)CCC3)[C@H]1CC[C@H](OC(=O)C(O)(c2cccs2)c2cccs2)CC1` [Formate salt of compound 41], the EC50 stood at 13.8 nM in data set [1] and 229 nM in data set [3]. Further, the IC50 in data set [2] was determined as 0.201 nM; in data set [4], 0.268 nM.
As to `CN(CCCn1nnc2cc(CNC[C@H](O)c3ccc(O)c4[nH]c(=O)ccc34)c3c(c21)OCCO3)[C@H]1CC[C@H](OC(=O)C(O)(c2cccs2)c2cccs2)CC1` [Formate salt of compound 12], the figures for the EC50 in data set [1] (setting [6]) and in data set [3] were 2.04 nM and 127 nM, respectively.
Regarding `Cc1ccc(C(O)(C(=O)C[C@H]2CC[C@H](N(C)CCCn3nnc4cc(CNC[C@H](O)c5ccc(O)c6[nH]c(=O)ccc56)c5c(c43)CCC5)CC2)c2ccc(C)s2)s1` [Formate salt of compound 32], the concentration for a half-maximal effect (EC50) in data set [1] (setting [6]) was 1.57 nM; in data set [3] (HTRF cAMP, 1 h incubation at room temperature, read-out: EC50, agonistic activity against the β1 receptor in vitro), 145 nM. The IC50 in data set [2] (0.2 nM 3H-NMS, M3 receptor membrane protein, 2 h at room temperature, read-out: IC50, activity against the M3 receptor in vitro) stood at 1.2 nM; in data set [4] (0.2 nM 3H-NMS, M2 receptor membrane protein, 2 h at room temperature, read-out: IC50, activity against the M2 receptor in vitro) it was 0.814 nM.
Turning to `C[N+]1(CCCn2nnc3cc(CNC[C@H](O)c4ccc(O)c5[nH]c(=O)ccc45)c4c(c32)CCC4)CCC(OC(=O)C(O)(c2cccs2)c2cccs2)CC1` (stereo partly shown) [Hydrobromide salt of compound 30], in data set [3], the EC50 is 94.9 nM.
For the compound `O=C(OC1CC2(CCN(CCCn3nnc4cc(CNC[C@H](O)c5ccc(O)c6[nH]c(=O)ccc56)c5c(c43)CCC5)CC2)C1)C(O)(c1ccc(Cl)s1)c1ccc(Cl)s1` [Formate salt of compound 19], the EC50 worked out at 5.14 nM in data set [1] (setting [6]) and 1440 nM in data set [3]. For the same compound, the IC50 in data set [2] (setting [7]) came to 0.281 nM.
In the case of `CN(CCCn1nnc2cc(CNC[C@H](O)c3ccc(O)c4[nH]c(=O)ccc34)ccc21)[C@H]1CC[C@H](OC(=O)C(O)(c2cccs2)c2cccs2)CC1` [Hydrofluoride salt of AZD8871, reference compound], in data set [5] (2 mg/kg, intravenous injection 2 mpk, 10% aqueous HPβCD, read-out: Clearance rate for administration by intravenous injection), the clearance was 35 mL/min/kg. For the same compound, the AUC was 1.27 µM·h in data set [5] (2 mg/kg, intravenous injection 2 mpk, 10% aqueous HPβCD, read-out: Concentration integration AUC for administration by intravenous injection) and 2.44 µM·h in data set [5] (inhaled or intranasal, 5 mg/kg, intra-tracheal 5 mpk, 10% aqueous HPβCD, read-out: Concentration integration AUC for intra-tracheal administration with a nebulizer needle). In addition, the bioavailability in data set [5] (inhaled or intranasal, 5 mg/kg, intra-tracheal 5 mpk vs intravenous 2 mpk, read-out: Bioavailability F for intra-tracheal administration with a nebulizer needle) turned out to be 76.7%. For the same compound, the half-life in data set [5] (inhaled or intranasal, 5 mg/kg, intra-tracheal 5 mpk, 10% aqueous HPβCD, read-out: Half life T1/2 for intra-tracheal administration with a nebulizer needle (converted)) is 30.9 min.
As for `CN(CCCn1nnc2cc(CNC[C@H](O)c3ccc(O)c4[nH]c(=O)ccc34)c3c(c21)COC3)[C@H]1CC[C@H](OC(=O)C(O)(c2cccs2)c2cccs2)CC1` [Formate salt of compound 40], the EC50 in data set [1] was 2.8 nM; in data set [3] it was 56.7 nM. Besides, the IC50 was determined as 0.363 nM in data set [2] and 0.228 nM in data set [4].
Take `O=C(OCC1(O)CCN(CCCn2nnc3cc(CNC[C@H](O)c4ccc(O)c5[nH]c(=O)ccc45)c4c(c32)CCC4)CC1)C(O)(c1cccs1)c1cccs1` [Formate salt of compound 31]: the IC50 in data set [2] (setting [7]) stood at 0.655 nM.
Regarding `CN(CCCn1nnc2cc(CNC[C@H](O)c3ccc(O)c4[nH]c(=O)ccc34)c3c(c21)OCO3)[C@H]1CC[C@H](OC(=O)C(O)(c2cccs2)c2cccs2)CC1` [Formate salt of compound 33], the EC50 is 0.742 nM in data set [1] and 53.1 nM in data set [3]. The IC50 in data set [2] came out at 0.494 nM; in data set [4] it was 0.153 nM.
As for `O=C(OC1CC2(C1)CN(CCCn1nnc3cc(CNC[C@H](O)c4ccc(O)c5[nH]c(=O)ccc45)c4c(c31)CCC4)C2)C(O)(c1cccs1)c1cccs1` [Formate salt of compound 2], the EC50 in data set [1] (setting [6]) amounted to 0.889 nM; in data set [3] it was 157 nM. For the same compound, in data set [2] (setting [7]), the IC50 came to 0.347 nM.
